The assay addresses Nuclear receptor ROR-alpha (Homo sapiens) (UniProt P35398). Put plainly: inhibitors of orphan receptor RORA activity – cell-based, counter-screen for SF-1 inhibitor project, dose response (AID 599). Conditions: cell-based RORA reporter inhibition.

SMILES strings stand for the structures. pIC50: −log10 of the molar value. Activity calls are given as the source filed them. No rule for the calls is given here.

What is called IC50 is the concentration needed to halve the response being measured. By pIC50 is commonly meant −log10 of the IC50, conventionally taken in molar units.

Sequence of Nuclear receptor ROR-alpha (Homo sapiens) (P35398 whole entry, looked up): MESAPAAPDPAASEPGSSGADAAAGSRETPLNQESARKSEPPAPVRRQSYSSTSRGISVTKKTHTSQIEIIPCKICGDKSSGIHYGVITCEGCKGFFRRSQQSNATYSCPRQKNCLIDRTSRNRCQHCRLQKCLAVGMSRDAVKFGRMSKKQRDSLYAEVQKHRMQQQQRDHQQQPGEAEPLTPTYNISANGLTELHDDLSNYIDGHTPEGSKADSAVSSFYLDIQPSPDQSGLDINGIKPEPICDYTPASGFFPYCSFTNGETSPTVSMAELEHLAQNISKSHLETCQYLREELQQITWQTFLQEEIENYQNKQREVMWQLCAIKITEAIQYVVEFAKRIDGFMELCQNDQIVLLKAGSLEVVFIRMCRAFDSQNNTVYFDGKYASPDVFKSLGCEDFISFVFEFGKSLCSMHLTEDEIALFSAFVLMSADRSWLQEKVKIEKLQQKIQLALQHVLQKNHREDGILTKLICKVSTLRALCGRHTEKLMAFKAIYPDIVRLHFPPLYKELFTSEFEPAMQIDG

As to `COc1cc(C2C(C#N)=C(N)Oc3cc(N(C)C)ccc32)cc2c1OCO2` (centres undefined), the IC50 was > 3.67 µM (inactive).

As for `COC(=O)C1=C(CN2CCCc3ccccc32)NC(=O)NC1c1ccc(F)cc1` (centres undefined), the pIC50 was 5.44.

Turning to `O=S(=O)(c1ccc2c(c1)C(=NO)c1cc(S(=O)(=O)N3CCCCC3)ccc1-2)N1CCCCC1`, the pIC50 was 5.71.

Regarding `COc1cc(C2C(C#N)=C(N)Oc3cc(N)ccc32)cc(OC)c1OC` (centres undefined), the IC50 entry was “inactive”.

Take `CCOc1ccccc1-n1c(SCC(=O)Nc2ccc(CC)cc2)nc2n[nH]c(C)c2c1=N`: the negative logarithm of the IC50 (pIC50) is 5.18.

Take `CCOC(=O)C1=C(Cn2cnc3ccccc32)NC(=O)NC1c1cc(C)ccc1C` (centres undefined): the IC50 was > 11 µM (inactive).

On to `Cc1ccc(C(=O)/C=C/Nc2ccccn2)cc1`, for which the IC50 entry was “inactive”.

On to `N#CC1=C(N)C(C#N)(C#N)[C@H](c2ccncc2)[C@H]2CN(C(=O)OCc3ccccc3)CC=C12`, for which the IC50 entry is “inactive”.

On to `COC(=O)c1ccc(N2C(=O)CC(N3CCC(n4c(=O)[nH]c5ccccc54)CC3)C2=O)cc1` (centres undefined), for which the IC50 was > 99 µM (inactive).

For the compound `CCN(CC)c1ccc2c(c1)OC(N)=C(C#N)C2c1cccnc1` (centres undefined), the IC50 result is “inactive”.

Take `CN(C)c1ccc2c(c1)OC(N)=C(C#N)C2c1cccc(F)c1` (centres undefined): the IC50 entry is “inactive”.

For the compound `COc1cc(C2C(C#N)=C(C)NC3=C2C(=O)c2ccccc23)cc(OC)c1OC` (centres undefined), the pIC50 was 5.32.

`CSC1=C(C#N)C(c2ccc(Cl)cc2)C2=C(CC(C)(C)CC2=O)N1` (centres undefined): the IC50 entry was “inactive”.

Consider `COc1cc(/C=N/O)ccc1OCc1ccc(C(=O)O)cc1`, for which the pIC50 was 6.01.

For `CN(C)c1ccc(N/C=C/C(=O)c2ccccc2)cc1`, the IC50 result was “inactive”.

In the case of `CC(=O)CC1OC(=O)C(Br)=C1NCc1ccccc1` (centres undefined), the negative-log IC50 (pIC50) was 5.02.

With `O=C(/C=C\Nc1ccccn1)c1ccc(Cl)cc1`, the negative-log IC50 (pIC50) is 5.15.

For the compound `O=C(/C=C\Nc1ccc2c(c1)OCO2)c1ccccn1`, the IC50 was > 11 µM (inactive).

As to `O=C(/C=C\Nc1cccc(F)c1)c1ccc2c(c1)OCO2`, the negative logarithm of the IC50 (pIC50) was 5.26.
